From the kinase profiling compilation of Christmann-Franck et al. (2016)

Columns and labels:
Assay in all cases: KINOMEscan competition binding
Conditions in all cases: compound 10.0 µM
INSRR (human) = INSRR (human) (UniProt P14616)
ANKK1 (human) = ANKK1 (human) (UniProt Q8NFD2)
GSK3B (human) = GSK3B (human) (UniProt P49841)
DCLK3 (human) = DCLK3 (human) (UniProt Q9C098)
CDK8 (human) = CDK8 (human) (UniProt P49336)
TSSK1B (human) = TSSK1B (human) (UniProt Q9BXA7)
SLK (human) = SLK (human) (UniProt Q9H2G2)
MAP2K5 (human) = MAP2K5 (human) (UniProt Q13163)
FES (human) = FES (human) (UniProt P07332)
BTK (human) = BTK (human) (UniProt Q06187)
Chain of BTK (human) (Q06187 whole entry, looked up): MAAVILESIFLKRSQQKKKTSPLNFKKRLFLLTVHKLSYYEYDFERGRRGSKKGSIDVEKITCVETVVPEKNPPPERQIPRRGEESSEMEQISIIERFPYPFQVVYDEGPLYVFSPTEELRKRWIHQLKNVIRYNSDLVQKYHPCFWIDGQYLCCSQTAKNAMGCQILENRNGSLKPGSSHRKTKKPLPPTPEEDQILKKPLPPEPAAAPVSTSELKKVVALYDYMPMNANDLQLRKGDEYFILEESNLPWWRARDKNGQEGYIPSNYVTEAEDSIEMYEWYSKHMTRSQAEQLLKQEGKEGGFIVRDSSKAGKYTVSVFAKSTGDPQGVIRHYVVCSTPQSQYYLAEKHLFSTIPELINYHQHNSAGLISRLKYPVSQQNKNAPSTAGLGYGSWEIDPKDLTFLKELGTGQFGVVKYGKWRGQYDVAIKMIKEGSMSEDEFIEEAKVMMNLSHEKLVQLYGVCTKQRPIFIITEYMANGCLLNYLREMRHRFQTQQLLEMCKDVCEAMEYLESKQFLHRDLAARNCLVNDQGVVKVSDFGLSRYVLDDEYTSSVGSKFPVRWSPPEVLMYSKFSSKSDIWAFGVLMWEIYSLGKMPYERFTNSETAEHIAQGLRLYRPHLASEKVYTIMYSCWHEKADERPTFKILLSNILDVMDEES

[1] = system: PIK3CA (human), P42336 [M1043I]
DYRK2 (human) = DYRK2 (human) (UniProt Q92630)
Chain of DYRK2 (human) (Q92630 whole entry, looked up): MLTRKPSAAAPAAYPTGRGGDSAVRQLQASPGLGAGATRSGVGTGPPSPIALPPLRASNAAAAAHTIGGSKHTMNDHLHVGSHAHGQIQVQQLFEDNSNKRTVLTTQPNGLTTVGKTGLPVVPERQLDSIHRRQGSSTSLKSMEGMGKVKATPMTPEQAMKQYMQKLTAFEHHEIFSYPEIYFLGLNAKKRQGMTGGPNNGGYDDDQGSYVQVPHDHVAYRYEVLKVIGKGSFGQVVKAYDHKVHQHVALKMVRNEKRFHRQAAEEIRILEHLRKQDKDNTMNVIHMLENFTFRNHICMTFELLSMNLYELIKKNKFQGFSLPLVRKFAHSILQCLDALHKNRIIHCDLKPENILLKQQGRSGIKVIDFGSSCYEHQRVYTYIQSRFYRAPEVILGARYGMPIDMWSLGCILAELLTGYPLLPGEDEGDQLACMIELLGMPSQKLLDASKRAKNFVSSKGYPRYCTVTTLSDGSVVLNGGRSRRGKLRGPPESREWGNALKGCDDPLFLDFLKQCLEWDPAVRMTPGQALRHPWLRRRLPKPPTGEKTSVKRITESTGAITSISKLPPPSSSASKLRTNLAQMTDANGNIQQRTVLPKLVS

TESK1 (human) = TESK1 (human) (UniProt Q15569)
IKBKE (human) = IKBKE (human) (UniProt Q14164)
STK33 (human) = STK33 (human) (UniProt Q9BYT3)
IRAK3 (human) = IRAK3 (human) (UniProt Q9Y616)
[2] = system: EGFR (human), P00533 [L858R]
EPHB6 (human) = EPHB6 (human) (UniProt O15197)
Chain of EPHB6 (human) (O15197 whole entry, looked up): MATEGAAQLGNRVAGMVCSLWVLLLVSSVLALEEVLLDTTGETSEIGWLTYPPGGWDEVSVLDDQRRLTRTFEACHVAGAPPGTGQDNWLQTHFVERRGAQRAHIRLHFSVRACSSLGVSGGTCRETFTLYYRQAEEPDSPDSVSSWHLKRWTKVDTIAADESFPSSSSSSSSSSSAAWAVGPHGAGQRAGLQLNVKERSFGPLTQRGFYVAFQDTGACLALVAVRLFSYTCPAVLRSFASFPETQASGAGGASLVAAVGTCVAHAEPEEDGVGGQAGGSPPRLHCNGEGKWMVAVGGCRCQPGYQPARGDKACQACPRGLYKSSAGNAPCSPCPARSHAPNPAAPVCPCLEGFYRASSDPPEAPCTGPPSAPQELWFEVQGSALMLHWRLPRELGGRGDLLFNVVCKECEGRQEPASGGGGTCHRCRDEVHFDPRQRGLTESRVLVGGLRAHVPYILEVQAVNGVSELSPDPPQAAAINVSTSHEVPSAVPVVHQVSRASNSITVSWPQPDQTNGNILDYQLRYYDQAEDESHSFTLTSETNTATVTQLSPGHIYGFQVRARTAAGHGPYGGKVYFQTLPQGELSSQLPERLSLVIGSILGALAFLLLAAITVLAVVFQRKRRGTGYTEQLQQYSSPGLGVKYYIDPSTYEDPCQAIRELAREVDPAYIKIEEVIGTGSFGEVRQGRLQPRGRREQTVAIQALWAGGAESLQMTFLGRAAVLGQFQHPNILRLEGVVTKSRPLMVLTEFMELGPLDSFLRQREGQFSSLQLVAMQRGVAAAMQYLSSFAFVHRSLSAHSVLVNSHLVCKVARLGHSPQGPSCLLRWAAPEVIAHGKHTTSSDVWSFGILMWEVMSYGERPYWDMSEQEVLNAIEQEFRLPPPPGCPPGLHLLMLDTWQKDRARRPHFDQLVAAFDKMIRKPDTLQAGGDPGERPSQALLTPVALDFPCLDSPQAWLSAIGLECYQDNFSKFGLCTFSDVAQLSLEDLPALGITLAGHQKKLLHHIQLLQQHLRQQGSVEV

ACVR2B (human) = ACVR2B (human) (UniProt Q13705)
Chain of ACVR2B (human) (Q13705 whole entry, looked up): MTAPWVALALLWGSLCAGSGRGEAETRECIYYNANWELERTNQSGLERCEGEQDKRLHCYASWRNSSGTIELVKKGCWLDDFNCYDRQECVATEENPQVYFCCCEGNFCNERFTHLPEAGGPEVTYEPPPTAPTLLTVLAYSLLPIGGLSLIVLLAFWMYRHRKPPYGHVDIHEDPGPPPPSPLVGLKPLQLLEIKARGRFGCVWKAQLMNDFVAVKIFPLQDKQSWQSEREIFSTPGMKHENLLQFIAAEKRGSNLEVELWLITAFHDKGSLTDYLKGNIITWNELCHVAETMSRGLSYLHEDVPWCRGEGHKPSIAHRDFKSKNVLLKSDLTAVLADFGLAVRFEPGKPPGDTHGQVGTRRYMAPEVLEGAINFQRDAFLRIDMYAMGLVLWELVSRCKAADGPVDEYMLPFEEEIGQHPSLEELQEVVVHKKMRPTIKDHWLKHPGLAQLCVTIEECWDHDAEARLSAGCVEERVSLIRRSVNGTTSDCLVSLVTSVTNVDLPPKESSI

MYLK4 (human) = MYLK4 (human) (UniProt Q86YV6)
Chain of MYLK4 (human) (Q86YV6 whole entry, looked up): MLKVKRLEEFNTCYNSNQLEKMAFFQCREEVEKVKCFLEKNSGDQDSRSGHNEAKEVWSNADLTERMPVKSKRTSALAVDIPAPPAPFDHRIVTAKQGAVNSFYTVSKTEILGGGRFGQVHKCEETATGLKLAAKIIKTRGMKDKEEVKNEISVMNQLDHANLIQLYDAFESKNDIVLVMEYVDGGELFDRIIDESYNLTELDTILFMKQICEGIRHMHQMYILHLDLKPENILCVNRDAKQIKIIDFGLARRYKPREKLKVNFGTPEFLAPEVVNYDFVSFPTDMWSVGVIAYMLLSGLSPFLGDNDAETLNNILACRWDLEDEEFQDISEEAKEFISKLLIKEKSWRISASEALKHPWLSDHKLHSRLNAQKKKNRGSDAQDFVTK

TAOK1 (human) = TAOK1 (human) (UniProt Q7L7X3)
ERBB2 (human) = ERBB2 (human) (UniProt P04626)
CDK15 (human) = CDK15 (human) (UniProt Q96Q40)
SIK3 (human) = SIK3 (human) (UniProt Q9Y2K2)
MAP3K11 (human) = MAP3K11 (human) (UniProt Q16584)
CaMK1 (human) = CaMK1 (human) (UniProt Q14012)
BMPR1A (human) = BMPR1A (human) (UniProt P36894)
Chain of BMPR1A (human) (P36894 whole entry, looked up): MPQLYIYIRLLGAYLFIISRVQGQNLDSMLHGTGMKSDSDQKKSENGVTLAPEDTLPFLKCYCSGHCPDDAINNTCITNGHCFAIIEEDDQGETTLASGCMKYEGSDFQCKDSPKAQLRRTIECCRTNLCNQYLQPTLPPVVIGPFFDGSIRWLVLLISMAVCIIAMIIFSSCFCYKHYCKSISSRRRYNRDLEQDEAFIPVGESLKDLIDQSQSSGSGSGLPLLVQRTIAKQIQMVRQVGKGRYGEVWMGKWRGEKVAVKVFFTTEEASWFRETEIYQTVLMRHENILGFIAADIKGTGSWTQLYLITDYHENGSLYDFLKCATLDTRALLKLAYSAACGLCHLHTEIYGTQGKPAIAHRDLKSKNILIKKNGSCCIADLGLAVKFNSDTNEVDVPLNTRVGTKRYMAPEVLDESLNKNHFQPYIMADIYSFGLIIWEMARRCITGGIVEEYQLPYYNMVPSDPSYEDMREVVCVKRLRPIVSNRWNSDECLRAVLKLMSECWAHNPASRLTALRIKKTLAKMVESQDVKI

[3] = molecular target: JAK1 JH2 pseudokinase (human) (UniProt P23458)
RPS6KA4 KD1 (human) = RPS6KA4 KD1 (human) (UniProt O75676)
HUNK (human) = HUNK (human) (UniProt P57058)
RIPK1 (human) = RIPK1 (human) (UniProt Q13546)
PRKG1 (human) = PRKG1 (human) (UniProt Q13976)
ABL2 (human) = ABL2 (human) (UniProt P42684)
CLK4 (human) = CLK4 (human) (UniProt Q9HAZ1)
PHKG2 (human) = PHKG2 (human) (UniProt P15735)
MAP3K7 (human) = MAP3K7 (human) (UniProt O43318)
TNK1 (human) = TNK1 (human) (UniProt Q13470)
TNIK (human) = TNIK (human) (UniProt Q9UKE5)
NTRK2 (human) = NTRK2 (human) (UniProt Q16620)
FGFR2 (human) = FGFR2 (human) (UniProt P21802)
Chain of FGFR2 (human) (P21802 whole entry, looked up): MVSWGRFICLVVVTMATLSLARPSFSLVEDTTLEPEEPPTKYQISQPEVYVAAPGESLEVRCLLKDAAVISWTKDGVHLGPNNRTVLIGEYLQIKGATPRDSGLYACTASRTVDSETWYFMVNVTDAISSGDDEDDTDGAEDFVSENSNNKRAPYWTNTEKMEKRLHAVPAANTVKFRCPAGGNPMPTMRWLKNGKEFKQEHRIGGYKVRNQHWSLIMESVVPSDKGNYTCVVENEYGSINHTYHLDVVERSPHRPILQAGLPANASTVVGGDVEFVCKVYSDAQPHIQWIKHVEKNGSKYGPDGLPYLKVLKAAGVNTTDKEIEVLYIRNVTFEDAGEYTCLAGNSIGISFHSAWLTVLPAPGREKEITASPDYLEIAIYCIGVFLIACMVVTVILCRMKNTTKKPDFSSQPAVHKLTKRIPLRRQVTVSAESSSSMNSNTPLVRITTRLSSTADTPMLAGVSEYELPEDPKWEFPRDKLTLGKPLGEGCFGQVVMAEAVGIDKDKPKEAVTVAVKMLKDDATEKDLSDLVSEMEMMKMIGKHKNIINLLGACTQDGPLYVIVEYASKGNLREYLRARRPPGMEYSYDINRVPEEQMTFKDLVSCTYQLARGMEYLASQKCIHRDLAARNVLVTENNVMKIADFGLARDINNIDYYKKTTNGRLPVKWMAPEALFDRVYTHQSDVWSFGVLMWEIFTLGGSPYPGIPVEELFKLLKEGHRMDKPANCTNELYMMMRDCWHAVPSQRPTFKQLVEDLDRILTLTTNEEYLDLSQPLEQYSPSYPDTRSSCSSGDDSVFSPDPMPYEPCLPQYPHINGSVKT

Chain of GSK3B (human) (P49841 whole entry, looked up): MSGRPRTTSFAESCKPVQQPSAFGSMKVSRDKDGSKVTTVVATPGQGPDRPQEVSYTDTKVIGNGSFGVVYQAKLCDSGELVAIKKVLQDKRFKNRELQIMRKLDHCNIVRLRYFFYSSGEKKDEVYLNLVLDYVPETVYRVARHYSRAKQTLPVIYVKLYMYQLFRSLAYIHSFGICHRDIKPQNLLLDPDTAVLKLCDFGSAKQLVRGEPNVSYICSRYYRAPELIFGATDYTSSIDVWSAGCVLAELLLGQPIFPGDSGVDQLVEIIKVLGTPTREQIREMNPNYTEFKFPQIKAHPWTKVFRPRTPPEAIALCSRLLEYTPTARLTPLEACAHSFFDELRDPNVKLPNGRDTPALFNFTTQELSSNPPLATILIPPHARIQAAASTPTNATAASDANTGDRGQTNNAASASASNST

| SMILES | kinase still bound, per cent of control (INSRR (human)) [%] | kinase still bound, per cent of control (ANKK1 (human)) [%] | kinase still bound, per cent of control (GSK3B (human)) [%] | kinase still bound, per cent of control (DCLK3 (human)) [%] | kinase still bound, per cent of control (CDK8 (human)) [%] | kinase still bound, per cent of control (TSSK1B (human)) [%] | kinase still bound, per cent of control (SLK (human)) [%] | kinase still bound, per cent of control (MAP2K5 (human)) [%] | kinase still bound, per cent of control (FES (human)) [%] | kinase still bound, per cent of control (BTK (human)) [%] | kinase still bound, per cent of control [1] [%] | kinase still bound, per cent of control (DYRK2 (human)) [%] | kinase still bound, per cent of control (TESK1 (human)) [%] | kinase still bound, per cent of control (IKBKE (human)) [%] | kinase still bound, per cent of control (STK33 (human)) [%] | kinase still bound, per cent of control (IRAK3 (human)) [%] | kinase still bound, per cent of control [2] [%] | kinase still bound, per cent of control (EPHB6 (human)) [%] | kinase still bound, per cent of control (ACVR2B (human)) [%] | kinase still bound, per cent of control (MYLK4 (human)) [%] | other results |
| --- | --- | --- | --- | --- | --- | --- | --- | --- | --- | --- | --- | --- | --- | --- | --- | --- | --- | --- | --- | --- | --- |
| CCN1CCN(Cc2ccc(NC(=O)c3ccc(C)c(/C=C/c4cnc5[nH]ccc5c4OC)c3)cc2C(F)(F)F)CC1 | 100 | 5.7 | 99 | 3.2 | 21 | 100 | 0.6 | 0.2 | 0.2 | 0.3 | 84 | 78 | 15 | 94 | 31 | 65 | 0.1 | 1.8 | 62 | 23 | kinase still bound, per cent of control (TAOK1 (human)): 0.75%; kinase still bound, per cent of control (ERBB2 (human)): 0%; kinase still bound, per cent of control (CDK15 (human)): 36%; kinase still bound, per cent of control (SIK3 (human)): 100%; kinase still bound, per cent of control (MAP3K11 (human)): 3.6%; kinase still bound, per cent of control (CaMK1 (human)): 30%; kinase still bound, per cent of control (BMPR1A (human)): 76%; kinase still bound, per cent of control [3]: 41%; kinase still bound, per cent of control (RPS6KA4 KD1 (human)): 50%; kinase still bound, per cent of control (HUNK (human)): 18%; kinase still bound, per cent of control (RIPK1 (human)): 0.15%; kinase still bound, per cent of control (PRKG1 (human)): 100%; kinase still bound, per cent of control (ABL2 (human)): 0%; kinase still bound, per cent of control (CLK4 (human)): 100%; kinase still bound, per cent of control (PHKG2 (human)): 100%; kinase still bound, per cent of control (MAP3K7 (human)): 4.8%; kinase still bound, per cent of control (TNK1 (human)): 1.4%; kinase still bound, per cent of control (TNIK (human)): 3.2%; kinase still bound, per cent of control (NTRK2 (human)): 5.2%; kinase still bound, per cent of control (FGFR2 (human)): 3.7% |
| COc1cc2ncnc(Nc3cccc(Cl)c3)c2cc1OC | 100 | 63 | 90 | 52 | 100 | 100 | 2 | 3.5 | 96 | 70 | 76 | 27 | 100 | 55 | 73 | 30 | 0.05 | 16 | 54 | 78 | kinase still bound, per cent of control (TAOK1 (human)): 38%; kinase still bound, per cent of control (ERBB2 (human)): 0.3%; kinase still bound, per cent of control (CDK15 (human)): 75%; kinase still bound, per cent of control (SIK3 (human)): 53%; kinase still bound, per cent of control (MAP3K11 (human)): 100%; kinase still bound, per cent of control (CaMK1 (human)): 81%; kinase still bound, per cent of control (BMPR1A (human)): 55%; kinase still bound, per cent of control [3]: 38%; kinase still bound, per cent of control (RPS6KA4 KD1 (human)): 100%; kinase still bound, per cent of control (HUNK (human)): 69%; kinase still bound, per cent of control (RIPK1 (human)): 100%; kinase still bound, per cent of control (PRKG1 (human)): 100%; kinase still bound, per cent of control (ABL2 (human)): 34%; kinase still bound, per cent of control (CLK4 (human)): 37%; kinase still bound, per cent of control (PHKG2 (human)): 93%; kinase still bound, per cent of control (MAP3K7 (human)): 39%; kinase still bound, per cent of control (TNK1 (human)): 26%; kinase still bound, per cent of control (TNIK (human)): 26%; kinase still bound, per cent of control (NTRK2 (human)): 80%; kinase still bound, per cent of control (FGFR2 (human)): 99% |
